{"source": "patent US6521623B1", "about": "“N,N'-disubstituted benzimidazolone derivatives with affinity at the serotonin and dopamine receptors” (Boehringer Ingelheim Pharma KG, priority 2000, dated 2003)", "key": {"5-HT1A [1]": {"molecular_target": "T1, 5-HT1A (Homo sapiens, UniProt P08908)", "T1 sequence (P08908 1-422)": "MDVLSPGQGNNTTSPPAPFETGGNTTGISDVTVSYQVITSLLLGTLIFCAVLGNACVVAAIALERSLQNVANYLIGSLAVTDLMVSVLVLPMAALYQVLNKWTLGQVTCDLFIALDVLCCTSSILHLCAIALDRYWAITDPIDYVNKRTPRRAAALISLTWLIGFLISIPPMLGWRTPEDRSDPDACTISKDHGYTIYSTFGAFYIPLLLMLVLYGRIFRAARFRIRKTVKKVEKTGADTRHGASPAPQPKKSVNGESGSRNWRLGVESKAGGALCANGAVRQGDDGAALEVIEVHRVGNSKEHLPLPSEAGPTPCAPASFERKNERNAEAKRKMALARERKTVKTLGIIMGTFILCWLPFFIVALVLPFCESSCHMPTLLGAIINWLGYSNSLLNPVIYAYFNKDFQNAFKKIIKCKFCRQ", "experiment": "5-HT1 Functional Assay (cAMP) in CHO/5-HT1A cells", "type": "cell-based", "design": "expressed in transfected cells; host or cells: CHO/5-HT1A cells", "method": "5-HT1 Functional Assay (cAMP)\nCHO/5-HT1A cells were random seeded at a density of about 200,000/well in 24 well plates the day prior to the experiment. On the day of the experiment, cells were pretreated for 15 minutes at 37° C. with 500 μM isobutylmethylxantine (IBMX) dissolved in culture medium without serum. Wells were then divided in different groups in duplicate as follows: control, 10 μM FSK, 10 μM FSK+1 μM 5-HT as positive standard and 10 μM FSK+10 μM of the different compound under evaluation. Sample solutions were added and incubated for additional 15 minutes at 37° C. After incubation, the medium was aspirated and the reaction stopped by adding 200 μl of lysis buffer. Plates were shaken for 5 minutes, then the lysate was removed and samples were stored at 4° C. until the day of the assay. For the cAMP evaluation, samples were properly diluted and the cAMP content was measured by an enzyme immunoassay system."}, "D4 human receptors": {"molecular_target": "T2, D4 human receptors (Homo sapiens, UniProt P21917)", "T2 construct": "expressed in transfected cells; host or cells: CHO cells", "T2 sequence (P21917 1-419)": "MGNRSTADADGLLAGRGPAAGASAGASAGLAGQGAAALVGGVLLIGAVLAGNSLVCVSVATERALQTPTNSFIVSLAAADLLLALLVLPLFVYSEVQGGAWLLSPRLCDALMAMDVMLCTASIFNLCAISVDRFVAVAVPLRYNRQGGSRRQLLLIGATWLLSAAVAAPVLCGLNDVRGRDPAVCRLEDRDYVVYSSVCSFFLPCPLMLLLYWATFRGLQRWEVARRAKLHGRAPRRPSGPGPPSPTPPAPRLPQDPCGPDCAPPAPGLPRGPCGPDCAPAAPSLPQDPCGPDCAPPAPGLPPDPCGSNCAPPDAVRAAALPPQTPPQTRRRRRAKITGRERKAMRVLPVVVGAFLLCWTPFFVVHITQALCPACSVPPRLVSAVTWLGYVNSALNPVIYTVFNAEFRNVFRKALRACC", "experiment": "D4 Radioligand Receptor Binding Assay ([3H] YM-09151-2, CHO cell membranes)", "conditions": "compound 10^−7 M, singlicate, [3H] YM-09151-2 0.15-0.25 nM", "in_short": "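Membranes from CHO cells expressing human D4 receptor incubated with [3H] YM-09151-2 (0.15-0.25 nM) and compound at one concentration (10^−7 M, singlicate) for 120 min at 27° C, then filtered.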"}, "5-HT1A [2]": {"molecular_target": "T1, 5-HT1A", "experiment": "5HT1A Radioligand Receptor Binding Assay ([3H]-8-OH-DPAT, CHO cell membranes)", "design": "expressed in transfected cells; host or cells: CHO cells", "conditions": "CHO membranes, human 5-HT1A", "in_short": "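CHO-cell membranes expressing human 5-HT1A incubated with [3H]-8-OH-DPAT (0.6-0.7 nM) for 60 minutes at 27° C, filtered and scintillation counted; non-specific binding defined with 10^−5 M 5-HT. Compounds tested singly at 10^−7 M as % of control specific binding; IC50 from one-site nonlinear regression.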"}}, "data": [{"smiles": "CCNC(=O)OCCn1c(=O)n(CCN2CCN(c3cccc(C)c3C)CC2)c2ccccc21", "note": "[Compound 215]", "values": [{"measurement": "inhibition at 10 µM", "setting": "5-HT1A [1]", "result": 83, "unit": "%"}, {"measurement": "inhibition at 0.1 µM", "setting": "D4 human receptors", "result": 48, "unit": "%"}, {"measurement": "IC50", "setting": "5-HT1A [2]; [3H]-8-OH-DPAT, read-out: 5-HT1A Receptor Binding IC50", "result": 0.85, "unit": "nM"}, {"measurement": "inhibition at 0.1 µM", "setting": "5-HT1A [2]; compound 10^−7 M, singlicate, [3H]-8-OH-DPAT 0.6-0.7 nM", "result": 98, "unit": "%"}]}]}
